Assay results as given in publication PMC5608804, “Stepwise Evolution Improves Identification of Diverse Peptides Binding to a Protein Target” (Scientific Reports, 2017).

Biological target: T1, streptavidin (Streptomyces avidinii, UniProt P22629)
T1 construct: purchased GE Healthcare (Little Chalfont, UK)
Assay: Cy5-streptavidin binding on HotSpot discovery array, 5-mer L-peptide library
Conditions: for S/B: signal to background ratio
Text: To identify hotspot sequences that bind to streptavidin (SA), we bound Cy5-SA to an array library of 2,476,099 5-mer L-peptides synthesized with 19 of 20 natural amino acids (excluding cysteine). The fluorescence signal intensity was aggregated across three independently synthesized arrays; then the 2,047 peptides with a signal-to-background ratio (S/B) >4 were selected. The data was further filtered to select 1,100 peptides for which signal intensities were highly correlated on all 3 arrays (the percentage of mean deviation to mean was <10%, see Supplementary dataset Table 2A). Most selected sequences (1,019 of 1,100) contained HP, PQ, or PM sequences: their presence would be expected in the well-known HPQ and HPM streptavidin binders[13]–[18].
The comprehensive peptide library included 2,476,099 5-mer peptides synthesized in a single copy with 19 of 20 L- or D-amino acids (excluding cysteine). Libraries were flanked on both N- and C-termini by linkers of 1 or 3 amino acids using a 3:1 glycine-serine mixture.
Cy5™-streptavidin (Cy5-SA) was purchased from GE Healthcare (Little Chalfont, UK). Freshly deprotected arrays were used in each experiment. Streptavidin binding to all arrays was performed with 0.5 µg/ml Cy5-SA either in binding buffer containing 10 mM Tris-HCl (pH 7.4), 1% alkali-soluble casein (EMD Millipore), 0.05% Tween-20 or in 10 mM Tris-HCl (pH 7.4), 4% BSA (Roche, Basel, Switzerland), 0.05% Tween-20 in a 30 mL PAP Jar container (Evergreen Scientific, Vernon, CA) overnight at 4° C. After incubation, arrays were washed in 20 mM Tris-HCl (pH 7.8), 0.2 M NaCl, 1% SDS or 1X TBS (pH 7.4) for 30 sec followed by a 1 min wash in water, and then dried by spinning in a microcentrifuge equipped with an array holder.
Cy5 fluorescence intensity of the arrays was measured with an MS200 scanner (Roche NimbleGen, Madison, WI) at resolution 2 µm, wavelength 635 nm, gain 25%, and laser intensity 100%. Cy5 signal intensities were extracted using Image Extraction Software (Roche NimbleGen). Data pre-processing, normalization, and statistical tests were performed using the language R. Data visualization and analysis was performed with the Spotfire 6.5.0 (Tibco, Boston, MA) software platform. Distance analysis and principle component analysis of distance matrices were performed with the R package PEPLIB[19].

[1] = 5-mer L-peptide library array, Cy5-streptavidin, from average of three arrays
[2] = 5-mer L-peptide library array, Cy5-streptavidin, from the average of three arrays
[3] = 5-mer L-peptide library array, Cy5-streptavidin
[4] = 5-mer L-peptide library, from the average of three arrays
[5] = average of three arrays, L-peptide 5-mer library

T1 sequence (P22629 25-183): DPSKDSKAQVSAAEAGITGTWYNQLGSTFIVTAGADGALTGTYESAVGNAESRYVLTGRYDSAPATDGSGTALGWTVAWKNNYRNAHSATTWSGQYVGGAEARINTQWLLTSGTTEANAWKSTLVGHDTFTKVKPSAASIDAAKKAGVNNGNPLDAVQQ

## HHPQI
[1]
  S/B (signal to background ratio): 19.7

## HPQVR
[1]
  S/B (signal to background ratio): 28.4

## IFHPM
[2]
  S/B (signal to background ratio): 60.0

## HWHPQ
[1]
  S/B (signal to background ratio): 166.7

## FHPQA
[1]
  S/B (signal to background ratio): 138.8

## HPQYY
[3]
  S/B: 9.4

## GPMPD
[4]
  S/B (signal to background ratio): 4.4

## HPMHG
[3]
  S/B: 13.1

## LAKYH [L-amino acid 5-mer array peptide]
[5]
  S/B (signal to background ratio): 12.2
[3]
  S/B: 12.2

## YHPQH
[2]
  S/B (signal to background ratio): 62.5

## YHPQI
[3]
  S/B: 14.3

## SHPQR
[1]
  S/B (signal to background ratio): 26.8

## PHPQW
[1]
  S/B (signal to background ratio): 23.8

## HPQKG
[3]
  S/B: 18.2

## WSHPM
[1]
  S/B (signal to background ratio): 129.1

## LGAFH [L-amino acid 5-mer array peptide]
[1]
  S/B (signal to background ratio): 52.3
[5]
  S/B (signal to background ratio): 52.3

## RHPQN
[2]
  S/B (signal to background ratio): 86.1

## HPMAF
[3]
  S/B: 18.0

## QQHPQ
[1]
  S/B (signal to background ratio): 136.6

## VAHPQ
[2]
  S/B (signal to background ratio): 118.6

## HPMRS
[3]
  S/B: 7.0

## GPHPQ
[1]
  S/B (signal to background ratio): 144.4

## IQHPM
[1]
  S/B (signal to background ratio): 50.9

## QHHPM
[2]
  S/B (signal to background ratio): 64.4

## WQHPQ
[1]
  S/B (signal to background ratio): 199.1

## LAFYH [L-amino acid 5-mer array peptide]
[5]
  S/B (signal to background ratio): 7.8
[3]
  S/B: 7.8

## RHPMS
[1]
  S/B (signal to background ratio): 30.8

## HHPQN
[1]
  S/B (signal to background ratio): 150.9

## KFHPQ
[2]
  S/B (signal to background ratio): 81.9

## HPMGQ
[1]
  S/B (signal to background ratio): 20.5

## PHPMY
[3]
  S/B: 12.1

## HPQAI
[3]
  S/B: 10.7

## THPQL
[4]
  S/B (signal to background ratio): 4.2

## FDTWL [L-amino acid 5-mer array peptide]
[5]
  S/B (signal to background ratio): 7.3
[3]
  S/B: 7.3

## FDSWL [L-amino acid 5-mer array peptide]
[5]
  S/B (signal to background ratio): 8.0
[3]
  S/B: 8.0

## GHPMG
[2]
  S/B (signal to background ratio): 65.8

## VRHPQ
[1]
  S/B (signal to background ratio): 151.4

## HPQRH
[3]
  S/B: 8.8

## ENHPQ
[2]
  S/B (signal to background ratio): 78.3

## YFHPQ
[1]
  S/B (signal to background ratio): 183.4

## LSHPQ
[1]
  S/B (signal to background ratio): 156.2

## HPMNR
[3]
  S/B: 5.6

## HNHPM
[1]
  S/B (signal to background ratio): 37.6

## HPMFI
[4]
  S/B (signal to background ratio): 4.7

## QHPMK
[4]
  S/B (signal to background ratio): 4.4

## HPQNA
[2]
  S/B (signal to background ratio): 108.8

## EFHPQ
[2]
  S/B (signal to background ratio): 100.0

## DHPQH
[1]
  S/B (signal to background ratio): 31.2

## HPQNQ
[2]
  S/B (signal to background ratio): 86.9

## TLHPQ
[2]
  S/B (signal to background ratio): 111.0

## LAEYH [L-amino acid 5-mer array peptide]
[1]
  S/B (signal to background ratio): 45.0
[5]
  S/B (signal to background ratio): 45.0

## GRHPQ
[1]
  S/B (signal to background ratio): 136.4

## HPQKN
[3]
  S/B: 7.8

## PNHPQ
[1]
  S/B (signal to background ratio): 144.0

## HPQFL
[1]
  S/B (signal to background ratio): 42.4

## LMHPM
[2]
  S/B (signal to background ratio): 66.9

## FQHPQ
[1]
  S/B (signal to background ratio): 161.2

## HPQRI
[4]
  S/B (signal to background ratio): 5.0

## HHPQR
[1]
  S/B (signal to background ratio): 35.2

## LWHPM
[2]
  S/B (signal to background ratio): 64.6

## PHPQV
[2]
  S/B (signal to background ratio): 97.2

## HPQRS
[3]
  S/B: 15.9

## LGGYH [L-amino acid 5-mer array peptide]
[5]
  S/B (signal to background ratio): 6.1
[3]
  S/B: 6.1

## DFHPQ
[2]
  S/B (signal to background ratio): 75.2

## NWEAV [L-amino acid 5-mer array peptide]
[4]
  S/B (signal to background ratio): 4.1
[5]
  S/B (signal to background ratio): 4.1

## SFHPM
[2]
  S/B (signal to background ratio): 65.3

## GEHPM
[3]
  S/B: 14.8

## GQHPM
[1]
  S/B (signal to background ratio): 43.1

## LIHPQ
[1]
  S/B (signal to background ratio): 120.1

## LHPMR
[3]
  S/B: 7.0

## SFHPQ
[1]
  S/B (signal to background ratio): 121.6

## YIHPQ
[1]
  S/B (signal to background ratio): 131.4

## DDHPM
[3]
  S/B: 11.6

## GYWTD [L-amino acid 5-mer array peptide]
[5]
  S/B (signal to background ratio): 8.4
[3]
  S/B: 8.4

## HPQGG
[1]
  S/B (signal to background ratio): 131.5

## THPQN
[1]
  S/B (signal to background ratio): 136.1

## NMHPQ
[1]
  S/B (signal to background ratio): 136.2

## PDHPQ
[2]
  S/B (signal to background ratio): 72.7

## VHPQA
[1]
  S/B (signal to background ratio): 131.8

## YDHPM
[2]
  S/B (signal to background ratio): 61.8

## GHPQG
[1]
  S/B (signal to background ratio): 135.5

## WAHPQ
[1]
  S/B (signal to background ratio): 207.5
